# Measured values taken from patent US20240268372A1, “Methods and Compositions for Extending Organ and Tissue Preservation” (The General Hospital Corporation, priority 2021, published 2024).
# What was measured:
# [1] = system: discarded DCD human livers; test: H&E histology of liver biopsies during NMP; details: EM, IHF and AHF livers
# Method: Histology and immunohistochemistry: Core needle biopsies taken from the right liver lobe at indicated intervals were fixed in formalin and embedded in paraffin. Hematoxylin and eosin (H&E) stains were performed on all biopsies to assess the degree of necrosis, inflammatory cell infiltrate, and reperfusion injury using a validated scoring system (see, e.g., ref. 17). Immunohistochemistry for LC3 was performed as previously described (see, e.g., ref. 3).
# rodent LT models = details: drug given at the time of liver procurement; cited from earlier work
# [2] = system: discarded DCD human livers; test: RNA sequencing of liver biopsies during NMP (differential expression, IPA, GO)
# Method: RNA purification and sequencing: Core needle biopsies taken immediately prior to perfusion and after 3 and 6 hours of perfusion were used for transcriptome sequencing. […] The differential gene expression threshold for significance was set to a Benjamini-Hochberg false discovery rate (FDR)<0.05.
# In brief, tissues samples from livers taken immediately prior to perfusion and after 3 and 6 hours of perfusion were used for transcriptome sequencing. Core needle biopsies from the right liver lobe were collected in RNAlater solution (Sigma-Millipore, Waltham, MA, USA) and stored overnight at 4° C. Tissue samples were then removed from solution and stored at −80° C. Total RNA was isolated using the RNeasy Mini Kit (Qiagen, Germantown, MD, USA) according to manufacturer guidelines. 500 ng of each sample was sequenced on an Illumina HiSeq 4000 using 9 PCR cycles by GENEWIZ (South Plainfield, NJ, USA). Raw RNA-Seq data files were transferred to the Brown University computing cluster via sFTP and aligned to the human genome build 38 using STAR 2.7.3a (see, e.g., ref. 25). While sequencing was performed in two batches, the alignment was performed on all samples simultaneously using the same settings.
# In brief, raw read counts were normalized using the Trimmed Mean of M method following removal of low-count genes (fewer than 10 reads in the smallest library). Differential gene expression analysis was conducted in R (see, e.g., ref. 27) using edgeR (see, e.g., ref. 28). The significance cutoff for differential gene expression was set to a Benjamini-Hochberg false-discovery rate (FDR or q-value)<0.05. Canonical pathway and upstream regulator enrichment analysis was generated through Ingenuity Pathway Analysis (IPA, Qiagen) (see, e.g., ref. 29). […]
# Gene ontology (GO) enrichment analysis was performed using the R package GOseq (see, e.g., ref. 31). […] The genes with the highest amount of variance explained by principal component 1, 2, or 3 cumulatively totaling to 10% of the total variance explained by the specified PC were further analyzed.
# [3] = system: discarded DCD human livers; test: Perfusate plasma apoptosis biomarkers, cell-free DNA and cytokines during liver NMP (ELISA kits)
# Method: With respect to the experimental group (emricasan, EM), 5 consecutive human livers turned down for transplant were enrolled. Emricasan, also known as IDN-6556 (MedChemExpress, Monmouth Junction, NJ), dissolved in DMSO was added to the circulating perfusate prior to initiation of liver perfusion at a dose of 5 mg/kg liver weight (1 mL total volume, 0.05% v/v total perfusate). Vehicle control (1 mL DMSO) was previously incorporated in the control liver perfusions (FIG. 6).
# Protein Analysis: Perfusate collected at the indicated time points was centrifuged at 5000 g and the plasma collected and stored at −80° C. for later analysis. Enzyme-linked immunosorbent assays (ELISA) were performed for various proteins according to manufacturers' guidelines.
# [4] = system: discarded DCD human livers; test: Western immunoblot and LC3B immunohistochemistry of liver biopsies during NMP (UPR, autophagy, necroptosis)
# Method: Sequential wedge biopsies from the right lobe of each liver were performed at indicated intervals, flash frozen in liquid nitrogen, and stored at −80° C. Tissue samples (20 mg) were homogenized and Western immunoblots performed as previously described (see, e.g., ref. 16). A full list of antibodies used is provided below in Table 3.
# To compare target protein expression, densitometry quantification was conducted. Both proteins varied across samples and the changes were not consistent between the 2 proteins, with the variation representing the biologic variability in the human liver.
# In brief, immunohistochemistry was performed using antibodies directed toward LC3B (Product No. NB100-2220, Novus Biologicals, Littleton, CO, USA). Paraffin sections (6 μm) were deparaffinized with xylene and rehydrated with graded ethanol. Antigen retrieval was performed by sub-boiling in 1×-diluted Dako Target Retrieval Solution for 10 min (DakoCytomation, Inc., Carpinteria, CA). Slides were then quenched in 3% H2O2 and blocked in 2.5% Normal Horse Serum (Vector Labs, Burlingame, CA) before overnight incubation in primary antibody (1:200 dilution) at 4° C. Slides were incubated with a horseradish-peroxidase conjugated secondary rabbit antibody (Vector Laboratories) for 1 hr prior to staining with DAB (Vector Laboratories). Slides were counterstained with hematoxylin. Omission of the primary antibody served as a negative control.
# [5] = system: discarded DCD human livers; test: Normothermic machine perfusion (NMP) of discarded human livers with emricasan in the perfusate: hepatocellular and cholangiocellular function
# Source text: Human liver perfusions: Sixteen human livers from donation after circulatory death, with consent for research, were included in this study after being turned down by all transplant centers in the respective region of procurement. Human livers were procured in standard fashion through two Organ Procurement Organizations (OPO): New England Donor Services (Waltham, MA, USA) and LiveOnNewYork (New York, NY). In addition, one liver was obtained through the International Institute for the Advancement of Medicine (IIAM, Edison, NJ), which originated from the Gift of Life Donor Program (Philadelphia, PA). Informed consent was obtained from donors by the OPO. The Massachusetts General Hospital and Lifespan Institutional Review Boards, as well as the two OPOs and IIAM, approved this study (No. 2011P001496). No organs were procured from prisoners and no vulnerable populations were included in this study.
# Procurement techniques based on donation after circulatory death followed standard methods. Donor livers were flushed in situ with University of Wisconsin solution. Total warm ischemic time was defined as the period from extubation to cold flush. Functional WIT was defined as the period from asystole to cold flush. Cold ischemic time was defined from cold flush to initiation of machine perfusion. All livers were transported via ground courier. After arrival to the laboratory under static cold storage, livers underwent standard back bench preparation for machine perfusion.
# Grafts were perfused on the Liver Assist device (Organ Assist, Groningen, Netherlands) using a previously described protocol (see, e.g., ref. 14). Briefly, perfusate composition consisted of O+ packed red blood cells, human albumin, Lactated Ringer's solution, and heparin. […] Perfusate, bile, and tissue biopsies were collected and analyzed at multiple time points. Grafts were assessed for adequate hepatocellular and cholangiocellular function. […] Cholangiocellular (biliary) viability metrics were measured according to van Leeuwen (see, e.g., ref. 15). […]
# [6] = clinical trials for liver transplant and NASH; cited from earlier work
# LT recipients = details: emricasan in preservation flush solution vs placebo group; cited from earlier work
structure (smiles),measurement,setting,value
C[C@H](NC(=O)C(=O)Nc1ccccc1C(C)(C)C)C(=O)N[C@@H](CC(=O)O)C(=O)COc1c(F)c(F)cc(F)c1F [emricasan],inflammatory infiltrate or necrosis (H&E histology),[1],no significant differences
same,survival in rodent LT models,rodent LT models,improved
same,"enrichment of IRI canonical pathways (innate immunity, sinusoidal endothelial cell activation), IPA",[2]; 3 and 6 h vs pre-perfusion,minimal enrichment
same,differentially expressed genes after 3 and 6 hours of NMP vs pre-perfusion,[2]; compared to both control groups,markedly smaller set of DEGs
same,upregulation of pro-inflammatory and pro-death genes,[2]; compared to controls (viable and nonviable livers),decreased upregulation
same,circulating cell-free DNA (DAMP),"[3]; NMP, compared to control groups",significantly reduced
same,perfusate caspase-3/7 enzyme activity,"[3]; NMP, vs control groups",significantly lower
same,perfusate level of cleaved cytokeratin 18,"[3]; NMP, vs control groups",significantly lower
same,evidence of apoptosis (circulating cleaved cytokeratin 18 and caspase-3/7 activity),[3]; after both 3 and 6 hours of NMP,significantly decreased
same,cell-free DNA in perfusate,[3]; at 1 and 6 hours of NMP,significantly lower
same,circulating interleukin-1β (IL-1β),[3]; compared only to IHF livers,lower
same,circulating tumor necrosis factor-α (TNFα),[3]; compared only to IHF livers,lower
same,perfusate interferon-γ (IFNG),[3]; compared to AHF and IHF groups,significantly lower
same,perfusate interleukin-6 (IL-6),[3]; compared to AHF and IHF groups,significantly lower
same,perfusate interleukin-8 (IL-8),[3]; compared to AHF and IHF groups,significantly lower
same,shift of LC3B to granule staining pattern (immunohistochemistry),[4]; 3 and 6 hr of NMP,not observed
same,induction of necroptosis,[4]; NMP with emricasan,did not lead to induction of necroptosis
same,Phospho-MLKL,[4]; before and during perfusion,below the limit of detection
same,number of emricasan-treated livers demonstrating adequate hepatocellular function,"[5]; 5 livers treated, 5 mg/kg liver weight in perfusate, NMP",4
same,IRI in cholangiocytes / cholangiocellular function,[5]; end-ischemic NMP of DCD livers,did not appear to improve IRI in cholangiocytes
same,ischemia-reperfusion injury in hepatocytes,[5]; treatment during NMP after cold and warm ischemia,mitigated
same,safety and tolerance profile,[6],excellent
same,AST and ALT levels in LT recipients,LT recipients,significantly lower
